Measurements from publication PMC8954540, “A New Class of PSMA-617-Based Hybrid Molecules for Preoperative Imaging and Intraoperative Fluorescence Navigation of Prostate Cancer” (Pharmaceuticals, 2022).
Starred links: 1 amine or outer side, 2 acyl side, 3 side chain; linkers in the order of their positions; H or OH if unused. Non-standard residues stand in square brackets, D forms with d. Residues, ends and D or L forms follow the SMILES beside them. *: point of attachment. FITC = O=C1OC2(c3ccc(O)cc3Oc3cc(O)ccc32)c2ccc(NC(=S)*)cc21; DOTA = O=C(O)CN1CCN(CC(=O)O)CCN(CC(=O)*)CCN(CC(=O)O)CC1; X2 = O=C(O)CCC(NC(=O)NC(CCCCN*)C(=O)O)C(=O)O; 2Nal = N[CH](Cc1ccc2ccccc2c1)C(=O)O; X1 = O=C(C1CCC(CN[*:1])CC1)[*:2]

Legend:
[1] = design: method as in PMID 16194449; settings: free dye; cited from earlier work
PSMA = target: T1, PSMA (Homo sapiens, UniProt Q04609); assay: Competitive cell binding assay (radioligand 68Ga-PSMA-10); settings: free ligands, mean ± SD, n = 3; for Ki: Ki=IC50/(1+cradioligand/Kd); for IC50: radioligand 68Ga-PSMA-10, 0.75 nmol/L
T1 construct: LNCaP cells (CRL-1740; ATCC; PSMA-positive); host or cells: LNCaP cells
T1 sequence (Q04609 whole entry): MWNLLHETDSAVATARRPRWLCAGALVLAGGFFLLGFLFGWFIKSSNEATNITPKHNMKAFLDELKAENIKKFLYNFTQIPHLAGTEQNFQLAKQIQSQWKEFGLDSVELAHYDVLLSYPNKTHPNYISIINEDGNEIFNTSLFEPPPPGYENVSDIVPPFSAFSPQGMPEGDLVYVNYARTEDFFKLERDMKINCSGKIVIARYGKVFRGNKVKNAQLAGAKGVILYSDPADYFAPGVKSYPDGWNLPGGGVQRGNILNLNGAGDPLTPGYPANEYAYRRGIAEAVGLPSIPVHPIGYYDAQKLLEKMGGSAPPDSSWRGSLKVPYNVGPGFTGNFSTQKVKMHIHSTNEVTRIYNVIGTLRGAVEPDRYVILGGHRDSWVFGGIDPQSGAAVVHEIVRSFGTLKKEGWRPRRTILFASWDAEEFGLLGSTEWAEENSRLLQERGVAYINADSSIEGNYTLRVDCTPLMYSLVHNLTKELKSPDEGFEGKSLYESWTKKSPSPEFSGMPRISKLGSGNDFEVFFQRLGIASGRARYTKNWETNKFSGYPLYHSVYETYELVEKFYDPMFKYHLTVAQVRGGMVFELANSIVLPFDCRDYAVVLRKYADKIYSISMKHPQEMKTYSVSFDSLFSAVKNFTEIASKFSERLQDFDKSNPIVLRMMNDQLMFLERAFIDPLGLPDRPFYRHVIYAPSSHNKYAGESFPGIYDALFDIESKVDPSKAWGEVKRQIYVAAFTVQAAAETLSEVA
Method: (§1) LNCaP cells (CRL-1740; ATCC; PSMA-positive) and PC-3 cells (CRL-1435; ATCC; PSMA-negative) were cultured in RPMI medium (Thermo Fisher Scientific, Waltham, MA, USA) supplemented with 10% fetal calf serum and 2 mmol/L L-glutamine (all from (Thermo Fisher Scientific, Waltham, MA, USA) ) at 37 °C in humidified air with 5% CO2. Cells were harvested using trypsin-ethylenediaminetetraacetic acid (trypsin-EDTA; 0.25% trypsin, 0.02% EDTA, Invitrogen, Waltham, MA, USA). Cell line authentication was regularly performed. Binding affinities and internalization profiles of the ^68Ga-labeled compounds were determined in competitive cell binding assays and internalization experiments as described previously.

LNCaP cells [2] = assay: Specific cell surface binding and internalization of 68Ga-labeled compounds; assay type: cell-based; settings: 68Ga-labeled compounds; blockage with 500 µmol/L 2-PMPA; mean ± SD, n = 3
Method: as §1

[3] = Lipophilicity, logD at pH 7.4 in n-octanol/PBS; assay type: physicochemical; settings: 68Ga-labeled ligand
Method: The synthesis was performed according to previously published protocols. Details on synthesis and analytical data of the compounds are provided in the Supplementary Materials (Compound Synthesis and Analytical Characterization). […] Using 30% NaOH (Sigma-Aldrich, Darmstadt, Germany) and 10% NaOH (Sigma-Aldrich, Darmstadt, Germany), the pH was adjusted to 3.8. The reaction mixture was incubated at 98 °C for 5–10 min. The radiochemical yield was analyzed by reversed-phase high-performance liquid chromatography (RP-HPLC) or reversed-phase thin-layer chromatography (RP-TLC, 60 RP-18 F254S, Sigma-Aldrich, Darmstadt, Germany) with 0.5 M ammonium acetate/methanol (1:1) as the mobile phase. The lipophilicity of the ^68Ga-labeled compounds was determined using the 2-phase system n-octanol and PBS.

[4] = test system: LNCaP-tumor bearing BALB/c nu/nu mice; settings: cited from earlier work; for tumor enhancement after dye conjugation: compared with PSMA-927
[5] = design: method as in PMID 25883127; settings: n-octanol/PBS; cited from earlier work
LNCaP cells [6] = test system: LNCaP cells; design: method as in PMID 26878194; settings: cited from earlier work
[7] = design: method as in PMID 34161051; settings: 831 patients; cited from earlier work
[8] = design: method as in PMID 29752180; settings: twelve weeks after the first dose; cited from earlier work

Row | Compound | Ki (PSMA) | IC50 (PSMA) | Specifically Cell Surface Bound (LNCaP cells [2]) | Specifically Internalized (LNCaP cells [2]) | Lipophilicity logDpH 7.4 n-octanol/PBS [3] | also measured
1 | CC1(C)C(=CC=C2CCCC(C=CC3=[N+](CCCCCC(=O)[O-])c4ccc(S(=O)(=O)[O-])cc4C3(C)C)=C2Oc2ccc(S(=O)(=O)[O-])cc2)N(CCCCS(=O)(=O)[O-])c2ccc(S(=O)(=O)[O-])cc21.[Na+].[Na+].[Na+].[Na+] [IRDye800CW] |  |  |  |  |  | absorption maximum [1]: 775 nm; emission maximum [1]: 796 nm
2 | O=C(O)CCC(NC(=O)NC(CCCCNC(=O)C(Cc1ccc2ccccc2c1)NC(=O)C1CCC(CNC(=O)C(CCCCNC(=S)Nc2ccc3c(c2)C(=O)OC32c3ccc(O)cc3Oc3cc(O)ccc32)NC(=O)CN2CCN(CC(=O)O)CCN(CC(=O)O)CCN(CC(=O)O)CC2)CC1)C(=O)O)C(=O)O (stereo not drawn) [PSMA-921, Glu-urea-Lys-2-Nal-Chx-Lys(Fluorescein)-DOTA] | 4.03 ± 0.95 nM | 4.83 ± 0.93 nM | 7.06 ± 3.32 %AR/10^5 Cells | 15.82 ± 6.18 %AR/10^5 Cells | -2.36 ± 0.03 | 
3 | O=C(O)CCC(NC(=O)NC(CCCCNC(=O)C(Cc1ccc2ccccc2c1)NC(=O)C1CCC(CNC(=O)C(CCCCNC(=S)Nc2ccc3c(c2)C(=O)OC32c3ccc(O)cc3Oc3cc(O)ccc32)NC(=O)C(CCC(=O)O)NC(=O)CN2CCN(CC(=O)O)CCN(CC(=O)O)CCN(CC(=O)O)CC2)CC1)C(=O)O)C(=O)O (stereo not drawn) [PSMA-922, Glu-urea-Lys-2-Nal-Chx-Lys(Fluorescein)-E1-DOTA] | 5.78 ± 1.32 nM | 6.93 ± 1.29 nM | 6.33 ± 1.53 %AR/10^5 Cells | 13.74 ± 5.75 %AR/10^5 Cells | -2.07 ± 0.06 | 
4 | O=C(O)CCC(NC(=O)NC(CCCCNC(=O)C(Cc1ccc2ccccc2c1)NC(=O)C1CCC(CNC(=O)C(CCCCNC(=S)Nc2ccc3c(c2)C(=O)OC32c3ccc(O)cc3Oc3cc(O)ccc32)NC(=O)C(CCC(=O)O)NC(=O)C(CCC(=O)O)NC(=O)CN2CCN(CC(=O)O)CCN(CC(=O)O)CCN(CC(=O)O)CC2)CC1)C(=O)O)C(=O)O (stereo not drawn) [PSMA-923, Glu-urea-Lys-2-Nal-Chx-Lys(Fluorescein)-E2-DOTA] ({DOTA}-EEK(FITC)[X1][2Nal]-X2; configuration not given here) | 5.95 ± 1.99 nM | 7.14 ± 1.95 nM | 9.82 ± 0.67 %AR/10^5 Cells | 21.55 ± 9.24 %AR/10^5 Cells | -2.16 ± 0.04 | 
5 | O=C(O)CCC(NC(=O)NC(CCCCNC(=O)C(Cc1ccc2ccccc2c1)NC(=O)C1CCC(CNC(=O)C(CCCCNC(=O)CN2CCN(CC(=O)O)CCN(CC(=O)O)CCN(CC(=O)O)CC2)NC(=S)Nc2ccc3c(c2)C(=O)OC32c3ccc(O)cc3Oc3cc(O)ccc32)CC1)C(=O)O)C(=O)O (stereo not drawn) [PSMA-924, Glu-urea-Lys-2-Nal-Chx-Lys(DOTA)-Fluorescein] | 3.87 ± 1.76 nM | 4.64 ± 1.23 nM | 1.11 ± 0.81 %AR/10^5 Cells | 1.11 ± 0.94 %AR/10^5 Cells | -2.38 ± 0.07 | 
6 | O=C(O)CCC(NC(=O)NC(CCCCNC(=O)C(Cc1ccc2ccccc2c1)NC(=O)C1CCC(CNC(=O)C(CCCCNC(=O)CN2CCN(CC(=O)O)CCN(CC(=O)O)CCN(CC(=O)O)CC2)NC(=O)C(CCC(=O)O)NC(=S)Nc2ccc3c(c2)C(=O)OC32c3ccc(O)cc3Oc3cc(O)ccc32)CC1)C(=O)O)C(=O)O (stereo not drawn) [PSMA-925, Glu-urea-Lys-2-Nal-Chx-Lys(DOTA)-E1- Fluorescein] | 6.77 ± 3.66 nM | 8.12 ± 3.59 nM | 2.67 ± 0.95 %AR/10^5 Cells | 3.03 ± 2.17 %AR/10^5 Cells | -2.05 ± 0.02 | 
7 | O=C(O)CCC(NC(=O)NC(CCCCNC(=O)C(Cc1ccc2ccccc2c1)NC(=O)C1CCC(CNC(=O)C(CCCCNC(=O)CN2CCN(CC(=O)O)CCN(CC(=O)O)CCN(CC(=O)O)CC2)NC(=O)C(CCC(=O)O)NC(=O)C(CCC(=O)O)NC(=S)Nc2ccc3c(c2)C(=O)OC32c3ccc(O)cc3Oc3cc(O)ccc32)CC1)C(=O)O)C(=O)O (stereo not drawn) [PSMA-926, Glu-urea-Lys-2-Nal-Chx-Lys(DOTA)-E2-Fluorescein] ({FITC}-EEK(DOTA)[X1][2Nal]-X2; configuration not given here) | 7.16 ± 2.63 nM | 8.59 ± 2.57 nM | 10.12 ± 4.85 %AR/10^5 Cells | 11.86 ± 5.31 %AR/10^5 Cells | -2.13 ± 0.03 | 
8 | O=C([O-])CN1CCN(CC(=O)[O-])CCN(CC(=O)NCC2CCC(C(=O)NC(Cc3ccc4ccccc4c3)C(=O)NCCCCC(NC(=O)NC(CCC(=O)O)C(=O)O)C(=O)O)CC2)CCN(CC(=O)[O-])CC1.[68Ga+3] (stereo not drawn) [[^68Ga]Ga-PSMA-617] |  |  |  |  |  | tumor uptake ([4]; 1 h p.i.): 8.47 ± 4.09 % ID/g; logDpH 7.4 [5]: –2.00; cell surface binding (LNCaP cells [6]): 11.40 ± 6.60 %ID/10^5 LNCaP cells; specific internalization (LNCaP cells [6]): 16.17 ± 3.66 %ID/10^5 LNCaP cells
9 | O=C([O-])CN1CCN(CC(=O)[O-])CCN(CC(=O)NCC2CCC(C(=O)NC(Cc3ccc4ccccc4c3)C(=O)NCCCCC(NC(=O)NC(CCC(=O)O)C(=O)O)C(=O)O)CC2)CCN(CC(=O)[O-])CC1.[177Lu+3] (stereo not drawn) [[^177Lu]Lu-PSMA-617] |  |  |  |  |  | overall survival [7]: significantly improves overall survival; tolerability of the treatment regimen [7]: very well-tolerated; patients with PSA decline greater than 50% [8]: half of the patients; patients with PSA decline greater than 80% [8]: 27%
10 | [^68Ga]Ga-Glu-urea-Lys-(HE)3-HBED-CC-IRDye800CW |  |  |  |  |  | tumor enhancement after dye conjugation [4]: significantly higher tumor enhancement
11 | [^68Ga]Ga-Glu-urea-Lys-HBED-CC-IRDye800CW |  |  |  |  |  | tumor enhancement after dye conjugation [4]: significantly higher tumor enhancement
